Experimental data reported in article PMC9964242 (Vaccines, 2023).
Values after ≈ are worked out from the molar mass of the structure shown. Values joined by “and” are separate entries in the source; they are usually repeats but may differ in a detail not shown here. Equal entries are not always repeated. Where two headings read alike, the source gives them in different places.

Assays:
in vitro = conditions: dog
[1] = tested on: seasonal influenza A/H1N1 virus; assay type: cell-based
[2] = tested on: seasonal influenza A/H1N1 virus; assay type: cell-based; remark: listed apart in the source
[3] = tested on: influenza A/chicken/Egypt/N12640A/2016 (H5N1); test: microbe, parasite or virus in culture; assay type: cell-based, influenza A/H5N1 virus; conditions: for IC50: Influenza A virus, H5N1, MDCK, read-out: IC50 (half-maximal inhibitory concentration)
[4] = tested on: influenza A/Egypt/NRC098/2019(H1N1); test: microbe, parasite or virus in culture; conditions: H1N1, MDCK
[5] = tested on: seasonal influenza A/H1N1 virus; assay type: cell-based; conditions: for Viral inhibition / inactivation of viral infectivity through direct viricidal action: 10–100 µg/mL
MDCK cells [6] = tested on: MDCK cells
[7] = tested on: influenza A/Egypt/NRC098/2019(H1N1)
Zika virus = conditions: cited from earlier work
MDCK cells [8] = conditions: cited from earlier work
A/ShanTou/169/06 (H1N1) = conditions: cited from earlier work
[9] = read-out: IC50 (half-maximal inhibitory concentration)

With `CC[C@H](CC[C@@H](C)[C@H]1CC[C@H]2[C@@H]3CC=C4C[C@@H](O)CC[C@]4(C)[C@H]3CC[C@]12C)C(C)C` [β-sitosterol] the CC50 (in vitro) was 9900 µg/mL (≈ 23900 µM), the “Plaque reduction %, Viral Adsorption” value [1] was 28% and 37.5% and 52.5% and the “Plaque reduction %, Viral Replication” value [2] was 31.8% and 41.2% and 52.9%. For the same compound, the IC50 [3] was 0.295 µg/mL (≈ 0.711 µM), the IC50 [4, 9] was 0.975 µg/mL (≈ 2.35 µM) and the “Plaque reduction %, Viricidal” value [5] was 84% and 98.5% and 99%. For the same compound, the “Viral inhibition / inactivation of viral infectivity through direct viricidal action” value [5] was “up to 90%”, the “CC50 (half-maximal cytotoxic concentration)” value (MDCK cells [6]; dog) was 9900 µg/mL (≈ 23900 µM) and the “SI (selectivity index = CC50/IC50)” value [7] was 10,154.

With `CC[C@H](CC[C@@H](C)[C@H]1CC[C@H]2[C@@H]3CC=C4C[C@@H](O[C@@H]5O[C@H](CO)[C@@H](O)[C@H](O)[C@H]5O)CC[C@]4(C)[C@H]3CC[C@]12C)C(C)C` [β-sitosterol-O-glucoside] the CC50 (in vitro) was 1750 µg/mL (≈ 3030 µM), the “Plaque reduction %, Viral Adsorption” value [1] was 35.8% and 48.3% and 56.9% and the “Plaque reduction %, Viral Replication” value [2] was 28.7% and 37.7% and 52.8%. The IC50 [3] was 0.613 µg/mL (≈ 1.06 µM), the IC50 [4, 9] was 0.719 µg/mL (≈ 1.25 µM) and the “Plaque reduction %, Viricidal” value [5] was 83.6% and 93.3% and 97.1%. For the same compound, the “Viral inhibition / inactivation of viral infectivity through direct viricidal action” value [5] was “up to 90%”, the “CC50 (half-maximal cytotoxic concentration)” value (MDCK cells [6]; dog) was 1750 µg/mL (≈ 3030 µM) and the “SI (selectivity index = CC50/IC50)” value [7] was 2434.

For `Cc1cc(O)c2c(c1)C(=O)c1cccc(O)c1C2=O` [Chrysophanic acid], the CC50 (in vitro) was 46.1 µg/mL (≈ 181 µM), the “CC50 (half-maximal cytotoxic concentration)” value (MDCK cells [6]; dog) was 46.1 µg/mL (≈ 181 µM) and the “IC50 relative to CC50 (in words)” value [7] was “IC50 > CC50”.

For `O=C1CC(c2ccccc2)Oc2ccccc21` (centres unmarked) [Flavanone], the “CC50 (half-maximal cytotoxic concentration)” value (MDCK cells [6]) was 450 µg/mL (≈ 2010 µM) and the “IC50 relative to CC50 (in words)” value [7] was “IC50 > CC50”.

In the case of `C[C@@H]1CC[C@@]2(OC1)O[C@H]1[C@@H](O)[C@H]3[C@@H]4CC[C@H]5C[C@@H](O[C@@H]6O[C@H](CO)[C@H](O[C@@H]7O[C@H](CO)[C@@H](O)[C@H](O[C@@H]8OC[C@@H](O)[C@H](O)[C@H]8O)[C@H]7O[C@@H]7O[C@H](CO)[C@H](O)[C@H](O[C@@H]8O[C@H](CO)[C@@H](O)[C@H](O)[C@H]8O)[C@H]7O)[C@H](O)[C@H]6O)[C@H](O)C[C@]5(C)[C@H]4CC[C@]3(C)[C@H]1[C@@H]2C` [Digitonin], the IC50 (Zika virus) is given as 7.91 µM, the CC50 (in vitro) is given as 442 µg/mL (≈ 360 µM) and the IC50 [4] is given as 21.6 µg/mL (≈ 17.5 µM). For the same compound, the IC50 [4, 9] was 21.5 µg/mL (≈ 17.5 µM), the “CC50 (half-maximal cytotoxic concentration)” value (MDCK cells [6]; dog) was 442 µg/mL (≈ 360 µM) and the “Antiviral activity against A/H1N1 (in words)” value (“Antiviral activity” for short) [7] was “moderate antiviral activity”. For the same compound, the “SI (selectivity index = CC50/IC50)” value [7] was 20.56.

In the case of `O=c1c(O[C@@H]2O[C@H](CO)[C@@H](O)[C@H](O)[C@H]2O)c(-c2ccc(O)c(O)c2)oc2cc(O)cc(O)c12` [Isoquercitrin], the CC50 (in vitro) is reported as 710 µg/mL (≈ 1530 µM), the IC50 [4, 9] is reported as 167 µg/mL (≈ 360 µM) and the “CC50 (half-maximal cytotoxic concentration)” value (MDCK cells [6]; dog) is reported as 710 µg/mL (≈ 1530 µM). For the same compound, the “Antiviral activity” value [7] was “poor antiviral potential” and the “SI (selectivity index = CC50/IC50)” value [7] was 4.25.

In the case of `C[C@@H]1O[C@@H](O[C@H]2[C@H](Oc3cc(O)c4c(c3)O[C@H](c3ccc(O)cc3)CC4=O)O[C@H](CO)[C@@H](O)[C@@H]2O)[C@H](O)[C@H](O)[C@H]1O` [Naringin], the CC50 (in vitro) is reported as greater than 10000 µg/mL, the IC50 [4] is reported as 20.7 µg/mL (≈ 35.6 µM) and the IC50 [4, 9] is reported as 20.6 µg/mL (≈ 35.5 µM). The “Antiviral activity” value [7] was “moderate antiviral activity” and the “SI (selectivity index = CC50/IC50)” value [7] was greater than 485.43.

Work on `C=C(C)[C@@H]1CC[C@]2(C)CC[C@]3(C)[C@H](CC[C@@H]4[C@@]5(C)CC[C@H](O)C(C)(C)[C@@H]5CC[C@]43C)[C@@H]12` [Lupeol] yielded a CC50 (in vitro) of 560 µg/mL (≈ 1310 µM), an IC50 [4] of 93.7 µg/mL (≈ 220 µM) and an IC50 [4, 9] of 93.6 µg/mL (≈ 219 µM). The “CC50 (half-maximal cytotoxic concentration)” value (MDCK cells [6]; dog) was 560 µg/mL (≈ 1310 µM) and the “SI (selectivity index = CC50/IC50)” value [7] was 5.98.

In the case of `OC[C@@H](O)[C@@H](O)[C@H](O)[C@@H](O)CO` [D-sorbitol], the CC50 (in vitro) is reported as greater than 10000 µg/mL, the IC50 [4, 9] is reported as 3110 µg/mL (≈ 17100 µM) and the “SI (selectivity index = CC50/IC50)” value [7] is reported as greater than 3.215.

In the case of `COc1cc(C2Oc3cc([C@H]4Oc5cc(O)cc(O)c5C(=O)[C@@H]4O)ccc3OC2CO)ccc1O` (some centres unmarked) [Silybin], the CC50 (in vitro) is given as 9480 µg/mL (≈ 19700 µM), the “CC50 (half-maximal cytotoxic concentration)” value (MDCK cells [6]; dog) is given as 9480 µg/mL (≈ 19700 µM) and the CC50 (MDCK cells [8]) is given as greater than 400 µM. The “Antiviral activity” value [7] was “poor anti-influenza potential”, the “IC50 relative to CC50 (in words)” value [7] was “IC50 > CC50” and the EC50 (A/ShanTou/169/06 (H1N1)) was 70.8 ± 8.11 µM.

With `OC[C@H]1O[C@@H](Oc2ccc(O)cc2)[C@H](O)[C@@H](O)[C@@H]1O` [Arbutin] the CC50 (in vitro) was greater than 10000 µg/mL, the IC50 [4, 9] was 764 µg/mL (≈ 2810 µM) and the “SI (selectivity index = CC50/IC50)” value [7] was greater than 13.09.

In the case of `O=C(O)/C=C/c1ccccc1O` [O-Coumaric acid], the CC50 (in vitro) is reported as 9170 µg/mL (≈ 55900 µM), the “CC50 (half-maximal cytotoxic concentration)” value (MDCK cells [6]; dog) is reported as 9172 µg/mL (≈ 55900 µM) and the “IC50 relative to CC50 (in words)” value [7] is reported as “IC50 > CC50”.

For `O=C[C@H](O)[C@@H](O)[C@@H](O)[C@H](O)C(=O)O` [D-Galacturonic acid, Galacturonic acid], the CC50 (in vitro) was 9610 µg/mL (≈ 49500 µM), the “CC50 (half-maximal cytotoxic concentration)” value (MDCK cells [6]; dog) was 9610 µg/mL (≈ 49500 µM) and the “IC50 relative to CC50 (in words)” value [7] was “IC50 > CC50”.

With `COc1cc(C=O)ccc1O` [Vanillin] the CC50 (in vitro) was 242 µg/mL (≈ 1590 µM), the “CC50 (half-maximal cytotoxic concentration)” value (MDCK cells [6]; dog) was 242 µg/mL (≈ 1590 µM) and the “IC50 relative to CC50 (in words)” value [7] was “IC50 > CC50”.

In the case of `O=c1cc(-c2ccccc2)oc2cc(O)ccc12` [7-Hydroxy flavone], the CC50 (in vitro) is reported as 5830 µg/mL (≈ 24500 µM), the IC50 [4, 9] is reported as 360 µg/mL (≈ 1510 µM) and the “CC50 (half-maximal cytotoxic concentration)” value (MDCK cells [6]; dog) is reported as 5830 µg/mL (≈ 24500 µM). The “Antiviral activity” value [7] was “poor antiviral activity” and the “SI (selectivity index = CC50/IC50)” value [7] was 16.194.

With `C[C@@H]1O[C@@H](Oc2cc(O)c3c(=O)c(O[C@@H]4O[C@@H](C)[C@H](O)[C@@H](O)[C@H]4O)c(-c4ccc(O)cc4)oc3c2)[C@H](O)[C@H](O)[C@H]1O` [Kaempferitrin] the CC50 (in vitro) was greater than 10000 µg/mL, the IC50 [4, 9] was 47.8 µg/mL (≈ 82.6 µM) and the “Antiviral activity” value [7] was “moderate antiviral activity”. The “SI (selectivity index = CC50/IC50)” value [7] was greater than 209.20.

With `O=C1c2cccc(O)c2C(=O)c2c(O)cc(CO)cc21` [Aloe emodin] the CC50 (in vitro) was 2280 µg/mL (≈ 8440 µM), the IC50 [4, 9] was 729 µg/mL (≈ 2700 µM) and the “CC50 (half-maximal cytotoxic concentration)” value (MDCK cells [6]; dog) was 2280 µg/mL (≈ 8440 µM). The “SI (selectivity index = CC50/IC50)” value [7] was 3.127.

With `O=C1C[C@@H](c2ccccc2)Oc2cc(O)cc(O)c21` [Pinocembrin] the CC50 (in vitro) was greater than 10000 µg/mL, the IC50 [4, 9] was greater than 10000 µg/mL and the “Antiviral activity” value [7] was “poor anti-H1N1 activity”.

With `O=C[C@H](O)[C@@H](O)[C@H](O)[C@H](O)C(=O)O` [D-Glucuronic acid, Glucuronic acid] the CC50 (in vitro) was 10300 µg/mL (≈ 52800 µM), the “CC50 (half-maximal cytotoxic concentration)” value (MDCK cells [6]; dog) was 10260 µg/mL (≈ 52800 µM) and the “IC50 relative to CC50 (in words)” value [7] was “IC50 > CC50”.

In the case of `C[C@]12CC[C@@H]3c4ccc(O)cc4CC[C@H]3[C@@H]1CC[C@@H]2O` [Estradiol, estradiol, reference compound], the CC50 (in vitro) is reported as greater than 5000 µg/mL and the IC50 [4] is reported as 7.1 µg/mL (≈ 26.1 µM).

In the case of `CC(=O)N[C@H]1[C@H]([C@H](O)[C@H](O)CO)OC(C(=O)O)=C[C@@H]1N=C(N)N` [Zanamivir, reference compound], the CC50 (in vitro) is reported as greater than 10000 µg/mL, the “SI (selectivity index = CC50/IC50)” value [3] is reported as >37,736 and the IC50 [3] is reported as 0.265 µg/mL (≈ 0.797 µM). The IC50 [4, 9] was 0.792 µg/mL (≈ 2.38 µM) and the “SI (selectivity index = CC50/IC50)” value [7] was >12,626.
